# Measured values: patent US5120736A, “4-methyl-5-(2-(4-phenylpiperazin-1-yl)ethyl)thiazole derivatives their method of preparation and the pharmaceutical compositions in which they are present” (Institut de Recherches Chimiques et Biologiques Appliquees, priority 1988, dated 1992)
# Read-outs that look alike come from different tables or passages of the source.
# Columns and labels:
# [1] = test system: lethal effect of norepinephrine; assay: adrenolytic activity in vivo in rats towards the lethal effect of norepinephrine; conditions: Rattus norvegicus
# Protocol: 3) Determination of the adrenolytic activity "in vivo" in rats:
# (§1) a) Principle of the measurement
# The intravenous injection of norepinephrine (0.4 mg.kg^-1) into wake rats causes the death of 100% of the animals. The prior administration of a substance with an alpha-blocking property enables this toxicity to be reduced.
# The results are expressed in the form of the 50% effective dose (ED50), i.e. the dose in mg.kg^-1 which protects 50% of the animals.
# [2] = test system: increase in ureteral pressure induced by norepinephrine; assay: inhibitory action on the increase in ureteral pressure induced in rabbits by intravenous norepinephrine; assay type: in vivo, anesthetized male rabbits; conditions: for ED50: Oryctolagus cuniculus, iv, norepinephrine-induced ureteral hyperpressure, read-out: ID50 (50 percent inhibitory dose)
# Protocol: 4) Determination of the inhibitory action of the compounds towards the increase in ureteral pressure induced in rabbits by the intravenous administration of norepinephrine
# as §1
# The ureteral pressure is measured by catheterization of the prostatic ureter of anesthetized male rabbits. The increase in ureteral pressure is induced by an intravenous injection of norepinephrine. This hyperpressure can be inhibited by the prior administration of molecules with alpha-blocking potential.
# These are shown in Table 5 in the form of the 50% inhibitory dose (ID50), which is defined as being the dose of product which, when administered intravenously, causes a 50% inhibition of the ureteral hyperpressure induced by norepinephrine.
# [3] = biological target: T1, post-synaptic alpha-adrenergic receptors (isolated rat vas deferens) (Rattus norvegicus, UniProt P43140); assay: alpha-blocking activity towards norepinephrine on isolated rat vas deferens; conditions: norepinephrine contraction, read-out: pA2 (converted)
# T1 construct: isolated rat vas deferens; from tissue; host or cells: isolated rat vas deferens
# T1 sequence (P43140 1-466): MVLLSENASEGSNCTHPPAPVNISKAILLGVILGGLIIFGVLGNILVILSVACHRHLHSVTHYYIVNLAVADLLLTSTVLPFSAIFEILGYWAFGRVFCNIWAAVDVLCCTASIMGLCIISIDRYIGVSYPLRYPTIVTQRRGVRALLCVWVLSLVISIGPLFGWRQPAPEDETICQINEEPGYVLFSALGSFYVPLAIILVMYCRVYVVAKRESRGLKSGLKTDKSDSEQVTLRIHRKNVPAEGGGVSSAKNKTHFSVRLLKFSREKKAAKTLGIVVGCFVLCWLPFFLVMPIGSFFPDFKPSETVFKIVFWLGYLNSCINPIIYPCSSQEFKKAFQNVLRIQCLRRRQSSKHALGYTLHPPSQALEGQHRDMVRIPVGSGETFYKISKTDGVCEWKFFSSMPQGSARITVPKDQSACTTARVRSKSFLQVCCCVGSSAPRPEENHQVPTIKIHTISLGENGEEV
# Protocol: 2) Determination of the alpha-blockinq activity on isolated rat vas deferens
# as §1
# Stimulation of the post-synaptic alpha-adrenergic receptors by norepinephrine causes contraction of the isolated vas deferens.
# The concentration of product in whose presence the norepinephrine concentration must be doubled to obtain the same effect as in the absence of said product is determined.
# The logarithm of this concentration, with its sign changed, constitutes the pA2 of the products.
# [4] = Acute toxicity in mice, single oral administration; conditions: mouse, in vivo, male mice, 14 days observation, read-out: LD50 (50 percent lethal dose)
# Protocol: 1) Acute toxicity in mice:
# Principle of the measurement
# The products were administered orally, in a single dose, to male mice with an average weight of 22 g. The mortality was recorded after an observation period of 14 days.
# The results are expressed in the form of the 50% lethal dose (LD50), i.e. the theoretical dose in mg.kg^-1, administered orally, which causes the death of 50% of the animals.
# [5] = oral, norepinephrine 0.4 mg.kg^-1 i.v., read-out: ED50 (50 percent effective dose)
Structure (SMILES),"ED50 ([1]; po, prior-art compound, under the same conditions, read-out: ED50)",ED50 [2],Kb [3],LD50 at 336 h [4],"ED50 [1, 5]","effectiveness against ureteral hyperpressure (in words) ([2]; i.v., in words)"
"Cc1ncsc1CCN1CCN(c2ccccc2)CC1 [4-methyl-5-[2-(4-phenylpiperazin-1-yl)ethyl]thiazole, reference compound]",8.7 mg/kg,–,–,–,–,–
"CCOc1ccccc1N1CCN(CCc2scnc2C)CC1.Cl.Cl.Cl [B 1211, 4-methyl-5-[2-(4-o-ethoxyphenylpiperazin-1-yl)ethyl]thiazole trihydrochloride]",–,0.16 mg/kg,26.3 nM,> 1000 mg/kg,2 mg/kg,–
"Cc1ncsc1CCN1CCN(c2ccccc2O)CC1.Cl.Cl [B 1302, 4-methyl-5-[2-(4-o-hydroxyphenylpiperazin-1-yl)ethyl]thiazole dihydrochloride]",–,0.44 mg/kg,126 nM,490 mg/kg,4 mg/kg,–
"CCCCOc1ccccc1N1CCN(CCc2scnc2C)CC1.Cl [B 1341, 4-methyl-5-[2-(4-o-butoxyphenylpiperazin-1-yl)ethyl]thiazole monohydrochloride]",–,0.39 mg/kg,10 nM,> 1000 mg/kg,1 mg/kg,–
"CCCCCOc1ccccc1N1CCN(CCc2scnc2C)CC1.Cl [B 1357, 4-methyl-5-[2-(4-o-pentoxyphenylpiperazin-1-yl)ethyl]thiazole monohydrochloride]",–,0.46 mg/kg,17 nM,> 1000 mg/kg,1.8 mg/kg,–
CCCOc1ccccc1N1CCN(CCc2scnc2C)CC1 [B 1359],–,–,57.5 nM,> 1000 mg/kg,1.93 mg/kg,–
"Cc1ncsc1CCN1CCN(c2ccccc2OC(C)C)CC1.Cl [B 1398, 4-methyl-5-[2-(4-o-isopropoxyphenylpiperazin-1-yl)ethyl]thiazole monohydrochloride]",–,0.09 mg/kg,17 nM,> 1000 mg/kg,0.44 mg/kg,remarkably effective
Cc1ncsc1CCN1CCN(c2ccccc2OCC(C)C)CC1 [B 1422],–,–,36.3 nM,> 1000 mg/kg,1.6 mg/kg,–
Cc1ncsc1CCN1CCN(c2ccccc2OCCC(C)C)CC1 [B 1423],–,–,45.7 nM,> 1000 mg/kg,2.35 mg/kg,–
Cc1ncsc1CCN1CCN(c2ccccc2OCC(C)(C)C)CC1 [B 1424],–,–,200 nM,> 1000 mg/kg,2.04 mg/kg,–
Cc1ncsc1CCN1CCN(c2ccccc2OCc2ccccc2)CC1 [B 1425],–,–,63.1 nM,> 1000 mg/kg,5 mg/kg,–
"COc1ccccc1N1CCN(CCc2scnc2C)CC1.Cl.Cl.Cl [B 1433, 4-methyl-5-[2-(4-o-methoxyphenylpiperazin-1-yl)ethyl]thiazole trihydrochloride]",–,0.3 mg/kg,14.5 nM,> 1000 mg/kg,2.66 mg/kg,–
